Mass density and activity coefficient data for 28 molecules are collected here from the NIST ThermoML archive (doi:10.1016/j.jct.2010.12.019).

For data set [1] the following is noted: 293.15 K; 101.33 kPa; Liquid; Pycnometric method.
Data set [2] in a line: activity coefficient (dimensionless); of the first substance listed, at infinite dilution; xn = mol fraction of the nth substance listed. The settings on record: Liquid, Chromatography, x1 = 0.

Several values for one entry are separate records, joined by “and”; a condition that tells them apart may be missing. Equal values may be shown once. ± gives the expanded uncertainty stated by the source.

As to `CCCCn1cc[n+](C)c1.[F][Sb-]([F])([F])([F])([F])[F]` [1-butyl-3-methylimidazolium hexafluoroantimonate], the mass density (in general, mass per unit of volume) in data set [1] was determined as 1694.3 ± 3.8 kg/m3.

With `C=CCCCCC` [1-heptene] + CCCCn1cc[n+](C)c1.[F][Sb-]([F])([F])([F])([F])[F], the activity coefficient in data set [2] (313.15 K) was 19.3 and 21.1; in data set [2] (323.15 K), 17.8 and 19.7; in data set [2] (333.15 K) it was 15.9 and 16.6.

On to `C#CCCCCC` [1-heptyne] + CCCCn1cc[n+](C)c1.[F][Sb-]([F])([F])([F])([F])[F], for which the activity coefficient was 5.74 and 6.11 in data set [2] (313.15 K); 5.82 and 6.08 in data set [2] (323.15 K); 5.74 and 6.23 in data set [2] (333.15 K).

Turning to `C#CCCCC` [1-hexyne] + CCCCn1cc[n+](C)c1.[F][Sb-]([F])([F])([F])([F])[F], the activity coefficient in data set [2] (313.15 K) was 4.26 and 4.05; in data set [2] (323.15 K) it was 4.11 and 4.23; in data set [2] (333.15 K), 4.1 and 4.32.

Regarding `C=CCCCCCCC` [1-nonene] + CCCCn1cc[n+](C)c1.[F][Sb-]([F])([F])([F])([F])[F], the activity coefficient is 32.4 and 32.6 in data set [2] (313.15 K); 30.8 and 33.4 in data set [2] (323.15 K); 30.8 and 32.6 in data set [2] (333.15 K).

On to `C#CCCCCCCC` [1-nonyne] + CCCCn1cc[n+](C)c1.[F][Sb-]([F])([F])([F])([F])[F], for which the activity coefficient was 11.4 and 11.6 in data set [2] (313.15 K); 10.9 and 11.8 in data set [2] (323.15 K); 10.9 and 11.6 in data set [2] (333.15 K).

On to `C#CCCCCCC` [1-octyne] + CCCCn1cc[n+](C)c1.[F][Sb-]([F])([F])([F])([F])[F], for which the activity coefficient in data set [2] (313.15 K) was 8.68 and 9.4; in data set [2] (323.15 K), 8.82 and 9.08; in data set [2] (333.15 K), 8.56 and 8.99.

`C=CCCC` [1-pentene] + CCCCn1cc[n+](C)c1.[F][Sb-]([F])([F])([F])([F])[F]: the activity coefficient in data set [2] (313.15 K) is 10.1 and 10.5; in data set [2] (323.15 K) it was 10.2 ± 0.9; in data set [2] (333.15 K), 9.94 and 10.4.

As to `C#CCCC` [1-pentyne] + CCCCn1cc[n+](C)c1.[F][Sb-]([F])([F])([F])([F])[F], the activity coefficient was 2.8 and 2.88 in data set [2] (313.15 K); 2.89 and 2.9 in data set [2] (323.15 K); 2.93 and 3.03 in data set [2] (333.15 K).

For `CC(C)=O` [acetone] + CCCCn1cc[n+](C)c1.[F][Sb-]([F])([F])([F])([F])[F], the activity coefficient was 0.403 and 0.437 in data set [2] (313.15 K); 0.445 and 0.466 in data set [2] (323.15 K); 0.463 and 0.487 in data set [2] (333.15 K).

With `c1ccccc1` [benzene] + CCCCn1cc[n+](C)c1.[F][Sb-]([F])([F])([F])([F])[F], the activity coefficient in data set [2] (313.15 K) was 1.23 and 1.31; in data set [2] (323.15 K), 1.28 and 1.37; in data set [2] (333.15 K) it was 1.31 and 1.37.

On to `CCC(C)=O` [butanone] + CCCCn1cc[n+](C)c1.[F][Sb-]([F])([F])([F])([F])[F], for which the activity coefficient in data set [2] (313.15 K) was 0.648 and 0.632; in data set [2] (323.15 K), 0.681 ± 0.058; in data set [2] (333.15 K) it was 0.702 and 0.718.

`C1CCCCCC1` [cycloheptane] + CCCCn1cc[n+](C)c1.[F][Sb-]([F])([F])([F])([F])[F]: the activity coefficient in data set [2] (313.15 K) is 20 and 18.7; in data set [2] (323.15 K) it was 15.7 and 21.1; in data set [2] (333.15 K), 17.3 and 18.2.

Regarding `C1CCCCC1` [cyclohexane] + CCCCn1cc[n+](C)c1.[F][Sb-]([F])([F])([F])([F])[F], the activity coefficient in data set [2] (313.15 K) was 16.4 and 15.4; in data set [2] (323.15 K), 11 and 18.6; in data set [2] (333.15 K), 14.1 and 14.6.

For the molecule `C1CCCCCCC1` [cyclooctane] + CCCCn1cc[n+](C)c1.[F][Sb-]([F])([F])([F])([F])[F], the activity coefficient in data set [2] (313.15 K) was 22.9 and 23.4; in data set [2] (323.15 K), 17.2 and 27.1; in data set [2] (333.15 K), 20.4 and 21.5.

For `C1CCCC1` [cyclopentane] + CCCCn1cc[n+](C)c1.[F][Sb-]([F])([F])([F])([F])[F], the activity coefficient is 11.4 and 11.9 in data set [2] (313.15 K); 10.6 and 10.9 in data set [2] (323.15 K); 10.2 and 10.7 in data set [2] (333.15 K).

In the case of `CCO` [ethanol] + CCCCn1cc[n+](C)c1.[F][Sb-]([F])([F])([F])([F])[F], the activity coefficient in data set [2] (313.15 K) was 2.33 and 2.46; in data set [2] (323.15 K), 2.14 and 2.3; in data set [2] (333.15 K) it was 2.01 and 2.07.

Take `CCc1ccccc1` [ethylbenzene] + CCCCn1cc[n+](C)c1.[F][Sb-]([F])([F])([F])([F])[F]: the activity coefficient in data set [2] (313.15 K) is 3.11 and 2.92; in data set [2] (323.15 K), 3.09 and 3.23; in data set [2] (333.15 K) it was 3.18 and 3.45.

For the molecule `CCCCCCC` [heptane] + CCCCn1cc[n+](C)c1.[F][Sb-]([F])([F])([F])([F])[F], the activity coefficient in data set [2] (313.15 K) was 37.1 and 38.7; in data set [2] (323.15 K) it was 34.2 and 35.8; in data set [2] (333.15 K), 31.4 and 34.4.

Regarding `C=CCCCC` [hex-1-ene] + CCCCn1cc[n+](C)c1.[F][Sb-]([F])([F])([F])([F])[F], the activity coefficient in data set [2] (313.15 K) is 14 and 13.1; in data set [2] (323.15 K), 13 and 14.1; in data set [2] (333.15 K), 13.4 and 13.8.

`CCCCCC` [hexane] + CCCCn1cc[n+](C)c1.[F][Sb-]([F])([F])([F])([F])[F]: the activity coefficient was 28.6 and 27.9 in data set [2] (313.15 K); 26.4 and 28.2 in data set [2] (323.15 K); 26 and 26.6 in data set [2] (333.15 K).

Take `CO` [methanol] + CCCCn1cc[n+](C)c1.[F][Sb-]([F])([F])([F])([F])[F]: the activity coefficient was 1.7 and 1.88 in data set [2] (313.15 K); 1.64 and 1.71 in data set [2] (323.15 K); 1.57 ± 0.13 in data set [2] (333.15 K).

Consider `CCCCCCCCC` [nonane] + CCCCn1cc[n+](C)c1.[F][Sb-]([F])([F])([F])([F])[F], for which the activity coefficient in data set [2] (313.15 K) is 47.7 and 48.8; in data set [2] (323.15 K), 44.9 and 49.1; in data set [2] (333.15 K) it was 44.1 and 47.3.

Consider `C=CCCCCCC` [oct-1-ene] + CCCCn1cc[n+](C)c1.[F][Sb-]([F])([F])([F])([F])[F], for which the activity coefficient is 25.7 ± 2.2 in data set [2] (313.15 K); 24.6 and 25.7 in data set [2] (323.15 K); 24.2 and 24.9 in data set [2] (333.15 K).

`CCCCCCCC` [octane] + CCCCn1cc[n+](C)c1.[F][Sb-]([F])([F])([F])([F])[F]: the activity coefficient in data set [2] (313.15 K) is 40.4 and 44.6; in data set [2] (323.15 K), 39.5 and 42.7; in data set [2] (333.15 K) it was 39.2 and 42.7.

As for `CCCCC` [pentane] + CCCCn1cc[n+](C)c1.[F][Sb-]([F])([F])([F])([F])[F], the activity coefficient in data set [2] (313.15 K) was 19.6 and 21.5; in data set [2] (323.15 K) it was 17.6 and 18.3; in data set [2] (333.15 K), 17 and 18.1.

For the molecule `CCCO` [propan-1-ol] + CCCCn1cc[n+](C)c1.[F][Sb-]([F])([F])([F])([F])[F], the activity coefficient in data set [2] (313.15 K) is 3.13 and 3.22; in data set [2] (323.15 K), 2.82 and 2.96; in data set [2] (333.15 K), 2.51 and 2.75.

As to `Cc1ccccc1` [toluene] + CCCCn1cc[n+](C)c1.[F][Sb-]([F])([F])([F])([F])[F], the activity coefficient was 1.87 and 1.78 in data set [2] (313.15 K); 1.88 and 1.94 in data set [2] (323.15 K); 1.92 and 1.97 in data set [2] (333.15 K).
